Key:
SP 0318 = biological target: T1, SP 0318 (Streptococcus pneumoniae, UniProt A0A0H2UNG9); experiment: ADP-glucokinase / G6PDH-coupled NADPH formation, A340; type: biochemical; conditions: 10 mM KDG, 2.5 mM ATP, 10 mM MgCl2, 50 mM Tris-Cl, pH 8.5, 37 °C
T1 construct: gene SP_0318
T1 sequence (A0A0H2UNG9 1-333): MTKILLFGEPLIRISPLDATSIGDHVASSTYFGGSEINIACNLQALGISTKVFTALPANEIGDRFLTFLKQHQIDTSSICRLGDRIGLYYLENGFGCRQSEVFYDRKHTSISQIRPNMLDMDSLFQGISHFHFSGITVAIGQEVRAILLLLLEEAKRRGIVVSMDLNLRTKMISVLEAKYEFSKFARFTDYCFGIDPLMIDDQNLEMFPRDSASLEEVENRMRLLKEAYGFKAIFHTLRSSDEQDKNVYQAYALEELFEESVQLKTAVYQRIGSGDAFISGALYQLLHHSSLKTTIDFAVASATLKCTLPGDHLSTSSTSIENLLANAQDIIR

SP 0320 = biological target: T2, SP 0320 (Streptococcus pneumoniae, UniProt A0A0H2UNC9); experiment: NADH oxidation, A340; type: biochemical; conditions: 300 mM potassium 5-keto-D-gluconate, 150 µM NADH, 100 mM Tris-Cl, pH 6.5, 37 °C
T2 construct: gene SP_0320
T2 sequence (A0A0H2UNC9 1-271): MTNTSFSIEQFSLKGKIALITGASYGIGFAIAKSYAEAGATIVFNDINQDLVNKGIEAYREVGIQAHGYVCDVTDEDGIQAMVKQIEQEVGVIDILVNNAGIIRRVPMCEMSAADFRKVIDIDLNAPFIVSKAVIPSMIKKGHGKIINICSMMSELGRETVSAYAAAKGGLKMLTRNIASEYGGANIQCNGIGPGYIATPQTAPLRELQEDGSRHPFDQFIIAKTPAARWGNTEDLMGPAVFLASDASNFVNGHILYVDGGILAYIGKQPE

Structure (SMILES) | ADP-glucokinase / G6PDH-coupled NADPH formation, A340 (SP 0318) | NADH oxidation, A340 (SP 0320)
Nc1ncnc2c1ncn2[C@@H]1O[C@H](COP(=O)(O)OP(=O)(O)OP(=O)(O)O)[C@@H](O)[C@H]1O [ATP] | phosphorylation of 2-keto-3-deoxygluconate (KDG) in the presence of ATP to give KDGP | 
NC(=O)C1=CN([C@@H]2O[C@H](COP(=O)(O)OP(=O)(O)OC[C@H]3O[C@@H](n4cnc5c(N)ncnc54)[C@H](O)[C@@H]3O)[C@@H](O)[C@H]2O)C=CC1 [NADH] |  | reduction of 5-keto-D-gluconate to D-gluconate with the subsequent oxidation of NADH
